Measurements published in US20210007360A1, “SOLUTIONS COMPRISING OZONIZED OIL” (priority 2018, published 2021).

Assays:
[1] = system: patients diagnosed with a cervical disc hernia; assay: Regional injections of ozone and PRP in cervical disc hernia, VAS pain score; type: in vivo, human; settings: 8 sessions of ozone, 2 sessions of PRP, 66 patients, 9.3 at the beginning
Protocol: Cervical disc and spinal disc hernias are one of the common health issues. In the studies we conduct on 66 patients diagnosed with a cervical disc hernia, the pain score is evaluated according to the VAS in 1 month, 4 months and 1 year after the regional injections of 8 sessions of ozone, 2 sessions of PRP. The pain score was 9.3 at the beginning, 6.9 in the first month, 4.8 in the 4th month and 3.6 at the end of the first year. It is also found in the literature that the regional injections of ozone are so effective. However, to perform these applications, there is a need for a clinic or a hospital where ozone treatment is offered. The dosages of solutions of ozonized oil or ozonides in water in regional applications are also applicable here. Depending on the size of the region, the ozonized oil or ozonide solution of 2-4 mg (2000-4000 ppm), which is made with ozonides comprising 10% ozone may be injected into paravertebral muscles and subcutaneous tissue to be able to benefit from anti-inflammatory and analgesic effects. However, with tissue oxygenation, dissolution of muscle spasm, and increased blood supply to the hernia, a long-acting treatment and shrinking of the hernia is provided.

[2] = 20° C.; cited from earlier work
[3] = system: knees of patients; assay: Intra-articular ozone and PRP treatment of knees, VAS scores; type: in vivo, human; settings: 8 sessions of ozone and 2 sessions of PRP, 187 knees of 100 patients, baseline 8.5
Description: Ozone gas injection may cause short-term burning and itching. However, this effect is rarely seen in intramuscular injections. For this reason, ozonide solutions comprising local anesthetic should be preferred especially if superficial injection will be performed. […] It is known that it prevents loss of cartilage by increasing oxygenation of the joint cartilage and reduces pain due to the analgesic effect with its anti-inflammatory effect. There are many publications in the literature about this issue. Similarly, in our own research, it was observed that VAS scores decreased from 8.5 to 4 on average as a result of the application of 8 sessions of ozone and 2 sessions of PRP treatment on 187 knees of 100 patients. In these applications, 20 micrograms of ozone are given as 20 ml (cc). That is, 400 micrograms of ozone have been applied. […] It can be applied at most twice a week. In addition, it can be combined with local anesthetic and anti-inflammatory agents. Vitamin E, which becomes popular in experimental studies in recent years, can be applied together with oil solutions and anti-inflammatory drugs. Hyaluronic acid is known to increase cartilage matrix in the intraarticular injection. It is known that better results are obtained with the ozone treatment and hyaluronic acid combinations. […]

[4] = cited from earlier work

O=[O+][O-] [ozone]
VAS pain score at the end of the first year [1]: 3.6
VAS pain score in the 4th month [1]: 4.8
VAS pain score in the first month [1]: 6.9
half life [2]: 40 min
VAS score after treatment, average [3]: 4

CCCCN1CCCCC1C(=O)Nc1c(C)cccc1C (stereo not shown) [bupivacaine]
duration of local effect ([4]; injection in oil): 72 h

CCN(CC)CC(=O)Nc1c(C)cccc1C [Lidocaine]
duration of effect in the injection zone ([4]; normal injection): up to 2 hours
